Here are results for 18 compounds from ChEMBL document CHEMBL1133851, “Novel spermine-amino acid conjugates and basic tripeptides enhance cleavage of the hairpin ribozyme at low magnesium ion concentration” (Bioorg Med Chem Lett, 2001).

Each structure is given as a SMILES string. Where a SMILES comes first, the peptide text is derived from it. [ ]: non-standard residue; d: D form. ξ: configuration not given here. Dab = NCC[C@H](N)C(=O)O; Dap = NC[C@H](N)C(=O)O; ξDab = NCCC(N)C(=O)O; ξDap = NCC(N)C(=O)O

The test system of experiment [1] is Hairpin ribozyme RNA.
Description: Cleavage rate against hairpin ribozyme at 2 mM, in presence of 0.5 uM magnesium ions
The test system of experiment [2] is Hairpin ribozyme RNA. This is another data set of the same source.
Description: Cleavage rate against hairpin ribozyme at 5 mM with 0.5 uM magnesium ions

In experiment [1], `NCC(NC(=O)[C@@H](N)CN)C(=O)O` (some centres not stated) (H-[Dap]-[ξDap]-OH) gave a K obs of 0.024.
With `NCCCNCCCCNCCCN`, the K obs in experiment [2] was 0.065; in experiment [1], 0.073.
In the case of `N=C(N)NCCC[C@H](N)C(=O)O`, the K obs in experiment [2] is 0.034; in experiment [1] it was 0.016.
On to `NCCC(=O)O`, for which the K obs in experiment [2] was 0.03; in experiment [1], 0.018.
Turning to `NCCCC[C@H](N)C(=O)O`, the K obs in experiment [2] worked out at 0.013; in experiment [1], 0.016.
Regarding `NCCCC(=O)O`, the K obs in experiment [2] was 0.023; in experiment [1], 0.0088.
On to `NCCC[C@@H](N)C(=O)O`, for which the figures for the K obs in experiment [2] and in experiment [1] were 0.034 and 0.0086, respectively.
As to `NCCCC[C@@H](N)C(=O)O`, the values for the K obs in experiment [2] and in experiment [1] were 0.026 and 0.004, respectively.
With `NCC[C@@H](N)C(=O)O`, the K obs in experiment [2] came out at 0.027; in experiment [1], 0.023.
For `NC[C@@H](N)C(=O)O`, the K obs in experiment [2] is 0.022; in experiment [1], 0.02.
For the compound `NCC[C@H](N)C(=O)NC(CN)C(=O)O` (some centres not stated) (H-[Dab]-[ξDap]-OH), the K obs in experiment [1] came out at 0.02.
For the compound `NCC[C@H](N)C(=O)O`, the K obs was found to be 0.08 in experiment [2] and 0.085 in experiment [1].
Take `NCC(=O)O`: the values for the K obs in experiment [2] and in experiment [1] were 0.03 and 0.017, respectively.
For the compound `NCCC(NC(=O)[C@@H](N)CN)C(=O)O` (some centres not stated) (H-[Dap]-[ξDab]-OH), the K obs in experiment [1] came to 0.026.
For the compound `N[C@H](Cc1c[nH]cn1)C(=O)O`, the K obs turned out to be 0.026 in experiment [2] and 0.0085 in experiment [1].
Regarding `NCCC(NC(=O)[C@@H](N)CCN)C(=O)O` (some centres not stated) (H-[Dab]-[ξDab]-OH), the K obs in experiment [1] came out at 0.021.
Regarding `N[C@@H](Cc1c[nH]cn1)C(=O)O`, the figures for the K obs in experiment [2] and in experiment [1] were 0.013 and 0.037, respectively.
For the compound `NC[C@H](N)C(=O)O`, the K obs in experiment [2] is 0.045; in experiment [1], 0.061.
